ChEMBL document CHEMBL4834416, “The Discovery of Novel ACA Derivatives as Specific TRPM2 Inhibitors that Reduce Ischemic Injury Both In Vitro and In Vivo” (J Med Chem, 2021)
The source made the active and inactive calls. The rule behind the calls is not given here.

Assays:
[1] = test system: Mus musculus; experiment: Neuroprotective activity in mouse model of transient middle cerebral artery occlusion-induced cerebral ischemia-reperfusion injury assessed as reduction in infarct volume at 3 mg/kg, iv treated for 3 hrs after onset of reperfusion by TTC staining based assay (reference value: 57.6 +/- 4.9%); assay type: functional; parameters: scale not given: the % may be the effect or the level left
[2] = Clearance in C57BL/6 mouse plasma at 10 mg/kg, IG by LC-MS/MS analysis; assay type: ADME, organism-based; conditions: po
[3] = Toxicity in C57BL/6 mouse assessed as adverse effect at 100 mg/kg, IG; assay type: organism-based; conditions: in vivo, po
[4] = Tmax in C57BL/6 mouse plasma at 1 mg/kg, iv by LC-MS/MS analysis; assay type: ADME, organism-based
[5] = Tmax in C57BL/6 mouse plasma at 10 mg/kg, IG by LC-MS/MS analysis; assay type: ADME, organism-based; conditions: po
[6] = test system: Mus musculus; experiment: Neuroprotective activity in mouse model of transient middle cerebral artery occlusion-induced cerebral ischemia-reperfusion injury assessed as reduction neurological score at 0.3 mg/kg, iv treated for 3 hrs after onset of reperfusion by TTC staining based assay relative to control; assay type: functional, organism-based
[7] = Half life in C57BL/6 mouse plasma at 3 mg/kg, iv by LC-MS/MS analysis; assay type: ADME, organism-based
[8] = Clearance in C57BL/6 mouse plasma at 0.3 mg/kg, iv by LC-MS/MS analysis; assay type: ADME, organism-based
[9] = Half life in C57BL/6 mouse plasma at 10 mg/kg, IG by LC-MS/MS analysis; assay type: ADME, organism-based; conditions: po
[10] = test system: Mus musculus; experiment: Neuroprotective activity in mouse model of transient middle cerebral artery occlusion-induced cerebral ischemia-reperfusion injury assessed as reduction neurological score at 3 mg/kg, iv treated for 3 hrs after onset of reperfusion by TTC staining based assay (reference value: 2.4 +/- 0.5); assay type: functional
[11] = AUC (0 to infinitive) in C57BL/6 mouse plasma at 10 mg/kg, IG by LC-MS/MS analysis; assay type: ADME, organism-based; parameters: route […], time infinity, dose 10 mg/kg; conditions: po

## O=C(/C=C/c1ccc(-c2cccc(C(F)(F)F)c2)cc1)Nc1ccccc1C(=O)O
[1]
  Activity: 38.9%
[2]
  CL/F: 1.04 mL/min/kg
[3]
  Activity: Non-Toxic
[4]
  Tmax: 4.8 min
[5]
  Tmax: 30 min
[6]
  Activity: inactive
[7]
  half-life: 80.4 min
[8]
  clearance: 0.917 mL/min/kg
[9]
  half-life: 85.2 min
[10]
  Activity: 1.8
[11]
  AUC(0-inf): 160 µg·h/mL
